Test results taken from US11666048B2, “Treatment for plants in conjunction with harvesting” (CORBET SCIENTIFIC, LLC, priority 2017, dated 2023).
Several values for one entry are separate records, joined by “and”; a condition that tells them apart may be missing. Identical values can stand only once. Entries after “also recorded” stand apart in the source; their conditions may differ.

Legend:
[1] = system: harvested grapefruit; assay: Post-harvest water-loss protection in fruit (Example 5); format: in vivo; conditions: ambient storage
Description: Grapefruit trees were separated into three groups. […] Spray treatment formulations were applied using a commercial air-blast sprayer (250 gallons/acre). Size 40 fruit were harvested in quadruplicate, washed, and waxed on Day 0. The washed and waxed fruit as then stored at ambient conditions (approximately 70-75° F.) for 40 days. Size 40 fruit harvested on Day 1 were left unwashed and unwaxed prior to storage (unwashed and unwaxed samples). To test the ability of the aqueous formulation of the present invention to protect harvested fruit from water loss, stored fruit were observed 8 and 20 days after harvest.

[2] = system: Anthracnose; assay: Post-harvest disease protection in fruit: Anthracnose (Example 5); format: in vivo, grapefruit; conditions: after 40 days in storage
Description: (§1) Grapefruit trees were separated into three groups. […] Spray treatment formulations were applied using a commercial air-blast sprayer (250 gallons/acre). Size 40 fruit were harvested in quadruplicate, washed, and waxed on Day 0. The washed and waxed fruit as then stored at ambient conditions (approximately 70-75° F.) for 40 days. Size 40 fruit harvested on Day 1 were left unwashed and unwaxed prior to storage (unwashed and unwaxed samples). After 40 days in storage, no significant differences were observed between treated and untreated fruit in terms of the percentage of healthy fruit and the percentage of total decay in the two groups.

[3] = system: Diplodia; assay: Post-harvest disease protection in fruit: Diplodia (Example 5); format: in vivo, grapefruit; conditions: after 40 days in storage
Description: as §1

[4] = system: Green Mold; assay: Post-harvest disease protection in fruit: Green Mold (Example 5); format: in vivo, grapefruit; conditions: after 40 days in storage
Description: as §1

[5] = system: harvested grapefruit; assay: Post-harvest disease protection in fruit: healthy fruit, total decay, stem-end rind breakdown (Example 5); format: in vivo; conditions: after 40 days in storage
Description: as §1

[6] = system: harvested grapefruit; assay: Water retention and disease protection in harvested grapefruit, pre-harvest spray (Example 3); format: in vivo
Description: Grapefruit trees were separated into three groups. Fruit in Groups 2 and 3 were treated prior to harvesting. Group 3 was treated with an aqueous treatment formulation comprising 95.70 wt % water, 2.00 wt % ACUSOL® 823, 0.10 wt % PVA (100,000 MW), 0.10 wt % ZnSO4 monohydrate, 0.10 wt % Antifoam® 8810, and 2.00 wt % TEA. […] Group 1 was untreated and served as a control. Groups 2 and 3 fruit were spray treated on Day −14 in the grove. Fruit was not de-greened. Fruit was weighed on Day 0, prior to packaging. Size 27-36 fruit were packed in honeycomb cartons, whereas size 40 fruit was packed in regular 4/5 cartons. Packed fruit was inspected on Day 68.

[7] = average over cartons of the group

## O=P([O-])([O-])O.[K+].[K+] [DKP, di-potassium phosphate]
[1]; not washed and waxed
  Wt. Loss (%) Day 8: 1.43 a %
  Wt. Loss (%) Day 20: 4.08 a %
[1]; washed and waxed
  Wt. Loss (%) Day 8: 1.11 c %
  Wt. Loss (%) Day 20: 3.89 a %
[2]
  Disease Anthracnose (%): 5.9%
[3]
  Disease Diplodia (%): 6.5%
[4]
  Disease Green Mold (%): 3.96%
[5]
  SERB (stem-end rind breakdown) (%): 7.15% and 7.15 ab %
  Total Decay (%): 16.31%
[5]; washed and waxed fruit
  Healthy (%): 77.15%

## O=P([O-])(O)O.[K+] [MKP, mono potassium phosphate]
[6]; [7]
  Average Weight Difference (%): 12.5%
  Average Δ Weight (lbs): 5 lbs
[6]; fruit size 27, Day 0 to Day 54
  Weight Difference (%): 11%
  Δ Weight (lbs): 4.4 lbs and 4.6 lbs
[6]; fruit size 32, Day 0 to Day 54
  Weight Difference (%): 14% and 13%
  Δ Weight (lbs): 5.6 lbs and 5.2 lbs
[6]; fruit size 32, fruit per carton at inspection
  Disease (puncture): 1 puncture
[6]; fruit size 36, Day 0 to Day 54
  Weight Difference (%): 14%
  Δ Weight (lbs): 5.6 lbs and 5.8 lbs
[6]; fruit size 36, fruit per carton at inspection
  Disease: 4 rot and 3 rot
[6]; fruit size 40, Day 0 to Day 54
  Weight Difference (%): 12% and 11%
  Δ Weight (lbs): 4.6 lbs and 4.2 lbs
[6]; fruit size 40, fruit per carton at inspection
  Disease: 1 rot
[6]; packed fruit at inspection
  shine and firmness compared with control: negligible
[6]; remarks printed beside carton lines, probably for the whole group, footnote: ⅔ fruit per carton were very firm
  Fruit Condition: no shine; also recorded: Like control; also recorded: very soft
